Tests used:
Test in all cases: relative viability (nuclei count vs DMSO), 5 days (fraction); higher = more cells survive
Carboplatin + Phenformin = compound: C1CC(C1)(C(=O)O)C(=O)O.[NH2-].[NH2-].[Pt+2] [Carboplatin] + N=C(N)NC(=N)NCCc1ccccc1 [Phenformin] (partner 250 µM)
How it was run: (§1)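 Relative viability divides the nuclei count in treated wells by that in vehicle wells. Lung cancer cell lines were seeded in 1536-well plates, dosed by pin tool the next day, and fixed and stained after 5 days in one step with final 0.05% Triton X-100, 1% formaldehyde and 1 ug/ml Hoechst. Dosing was a single drug or a fixed anchor-drug dose plus five library-drug doses (not always all listed) in √10 steps, and values are medians of duplicate plates imaged at 4×.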

GSK126 + Luminespib = compound: CC[C@H](C)N1C=C(C2=C(C=C(C=C21)C3=CN=C(C=C3)N4CCNCC4)C(=O)NCC5=C(C=C(NC5=O)C)C)C [GSK126] + CCNC(=O)c1noc(-c2cc(C(C)C)c(O)cc2O)c1-c1ccc(CN2CCOCC2)cc1 [Luminespib] (partner 0.01 µM)
How it was run: as §1

GSK126 + Crizotinib = compound: CC[C@H](C)N1C=C(C2=C(C=C(C=C21)C3=CN=C(C=C3)N4CCNCC4)C(=O)NCC5=C(C=C(NC5=O)C)C)C [GSK126] + C[C@@H](Oc1cc(-c2cnn(C3CCNCC3)c2)cnc1N)c1c(Cl)ccc(F)c1Cl [Crizotinib] (partner 1 µM)
How it was run: as §1

MLN4924 + Lapatinib = compound: NS(=O)(=O)OC[C@@H]1C[C@@H](n2ccc3c(N[C@H]4CCc5ccccc54)ncnc32)C[C@@H]1O [MLN4924] + CS(=O)(=O)CCNCc1ccc(-c2ccc3ncnc(Nc4ccc(OCc5cccc(F)c5)c(Cl)c4)c3c2)o1 [Lapatinib] (partner 2 µM)
How it was run: as §1

Cell Line | relative viability (Carboplatin + Phenformin; first compound 0.08 µM) | relative viability (Carboplatin + Phenformin; first compound 0.253 µM) | relative viability (Carboplatin + Phenformin; first compound 0.8 µM) | relative viability (Carboplatin + Phenformin; first compound 2.53 µM) | relative viability (Carboplatin + Phenformin; first compound 8 µM) | relative viability (GSK126 + Luminespib; first compound 0.08 µM) | relative viability (GSK126 + Luminespib; first compound 0.253 µM) | relative viability (GSK126 + Luminespib; first compound 0.8 µM) | relative viability (GSK126 + Luminespib; first compound 2.53 µM) | relative viability (GSK126 + Luminespib; first compound 8 µM) | relative viability (GSK126 + Crizotinib; first compound 0.08 µM) | relative viability (GSK126 + Crizotinib; first compound 0.253 µM) | relative viability (GSK126 + Crizotinib; first compound 0.8 µM) | relative viability (GSK126 + Crizotinib; first compound 2.53 µM) | relative viability (GSK126 + Crizotinib; first compound 8 µM) | relative viability (MLN4924 + Lapatinib; first compound 0.04 µM) | relative viability (MLN4924 + Lapatinib; first compound 0.1265 µM) | relative viability (MLN4924 + Lapatinib; first compound 0.4 µM) | relative viability (MLN4924 + Lapatinib; first compound 1.265 µM) | relative viability (MLN4924 + Lapatinib; first compound 4 µM)
201T | 0.482 | 0.447 | 0.441 | 0.444 | 0.432 | 1.01 | 1.05 | 1.08 | 1.12 | 1.2 | 1.1 | 1.06 | 1.03 | 0.93 | 1.09 | 1.13 | 1.09 | 0.826 | 0.384 | 0.417
A549 | 0.186 | 0.193 | 0.16 | 0.112 | 0.073 |  |  |  |  |  | 0.925 | 0.677 | 0.709 | 0.807 | 0.652 | 0.71 | 0.667 | 0.079 | 0.0634 | 0.0662
A-427 | 0.428 | 0.385 | 0.32 | 0.285 | 0.383 | 1.29 | 0.87 | 0.82 | 0.884 | 0.769 | 0.898 | 1.01 | 0.857 | 0.856 | 0.84 | 0.589 | 0.608 | 0.268 | 0.196 | 0.169
ABC-1 | 0.226 | 0.19 | 0.248 | 0.251 | 0.226 | 0.737 | 0.449 | 0.575 | 1.13 | 0.955 | 1.06 | 1.16 | 1.23 | 1.17 | 0.937 | 1.11 | 1.45 | 1.71 | 0.773 | 0.552
BEN | 0.233 | 0.275 | 0.258 | 0.264 | 0.248 | 0.465 | 0.681 | 0.222 | 0.419 | 0.342 | 0.892 | 0.87 | 0.832 | 0.823 | 0.671 | 0.671 | 0.522 | 0.249 | 0.145 | 0.104
CAL-12T | 0.56 | 0.584 | 0.591 | 0.534 | 0.557 | 0.605 | 0.552 | 0.45 | 0.496 | 0.636 | 0.805 | 0.67 | 0.699 | 0.398 | 0.441 |  | 0.603 | 0.354 | 0.198 | 0.243
COR-L23 | 0.453 | 0.394 | 0.428 | 0.353 | 0.241 | 0.752 | 0.702 | 0.614 | 0.637 | 0.608 | 0.663 | 0.559 | 0.659 | 0.611 | 0.713 | 0.921 | 0.672 | 0.431 | 0.142 | 0.106
COR-L 105 | 0.576 | 0.418 | 0.481 | 0.411 | 0.373 | 1.01 | 0.74 | 0.78 | 0.734 | 0.839 | 0.859 | 0.935 | 0.783 | 0.687 | 0.62 | 0.355 | 0.335 | 0.337 | 0.282 | 0.281
Calu-6 |  |  |  |  |  |  |  |  |  |  | 0.906 | 0.749 | 0.806 | 0.844 | 0.759 | 0.868 | 0.6 | 0.211 | 0.122 | 0.129
ChaGo-K-1 | 0.459 | 0.508 | 0.467 | 0.381 | 0.392 | 0.602 | 0.675 | 0.556 | 0.769 | 0.397 | 0.998 | 1.09 | 0.976 | 1.14 | 1.12 |  |  |  |  | 
EBC-1 |  |  |  |  |  |  |  |  |  |  | 0.204 | 0.203 | 0.182 | 0.193 | 0.173 | 0.246 | 0.297 | 0.228 | 0.191 | 0.216
EKVX | 0.248 | 0.214 |  | 0.227 | 0.22 | 0.842 | 0.878 | 0.856 | 0.836 | 0.896 | 0.899 | 0.921 | 0.895 | 0.978 | 1.09 | 0.208 | 0.311 | 0.19 | 0.119 | 0.102
EMC-BAC-2 | 0.559 | 0.581 | 0.52 | 0.521 | 0.461 | 1.19 | 1.17 | 1.17 | 1.11 | 1.24 | 0.772 | 0.765 | 0.718 | 0.723 | 0.701 | 0.468 | 0.913 | 0.303 | 0.217 | 0.178
EPLC-272H | 0.345 | 0.347 | 0.309 | 0.298 | 0.313 | 0.485 | 0.198 | 0.595 | 0.522 | 0.237 | 1.07 | 0.843 | 0.909 | 0.719 | 0.789 | 0.848 | 0.805 | 0.106 | 0.119 | 0.165
H3255 | 0.291 | 0.381 | 0.395 | 0.349 | 0.364 | 0.988 | 0.968 | 0.898 | 0.95 | 1.01 | 1.02 | 0.814 | 0.819 | 0.866 | 0.794 | 0.253 | 0.38 | 0.201 | 0.185 | 0.208
HARA | 0.466 | 0.518 | 0.372 | 0.426 | 0.425 | 0.787 | 0.679 | 0.688 | 0.895 | 0.813 | 1.13 | 0.986 | 1.01 | 1.12 | 0.817 | 0.856 | 0.607 | 0.283 | 0.0754 | 0.0741
HCC-15 | 0.562 | 0.47 | 0.441 | 0.407 | 0.37 | 0.494 | 0.268 | 0.41 | 0.286 | 0.245 | 0.882 | 0.873 | 0.786 | 0.748 | 0.709 | 0.514 | 0.374 | 0.115 | 0.0895 | 0.0956

— the supplement of paper PMC10307832
